Source: PubChem BioAssay (NCI)
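Growth conditions: 96-well plates. Treatment: test compound, 48 hours, 5 concentrations. Analysis: linear interpolation between bracketing concentrations; unreached endpoints set to highest concentration. TGI: concentration producing complete growth inhibition.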

Columns and labels:
Assay in all cases: growth of human tumour cells (NCI), 48 h
[1] = tested on: 786-0 renal
[2] = tested on: A498 renal
[3] = tested on: A549 NSCLC
[4] = tested on: ACHN renal
[5] = tested on: BT-549 breast
[6] = tested on: CAKI-1 renal
[7] = tested on: CCRF-CEM leukemia
[8] = tested on: COLO 205 colon
[9] = tested on: DU-145 prostate
[10] = tested on: EKVX NSCLC
[11] = tested on: HCC-2998 colon
[12] = tested on: HCT-116 colon
[13] = tested on: HCT-15 colon
[14] = tested on: HOP-62 NSCLC
[15] = tested on: HOP-92 NSCLC
[16] = tested on: HT29 colon
[17] = tested on: IGROV1 ovarian
[18] = tested on: K-562 leukemia
[19] = tested on: KM12 colon
[20] = tested on: LOX IMVI melanoma
[21] = tested on: M14 melanoma
[22] = tested on: MALME-3M melanoma
[23] = tested on: MCF7 breast
[24] = tested on: MDA-MB-231 breast
[25] = tested on: MDA-MB-435
[26] = tested on: MDA-N
[27] = tested on: MOLT-4 leukemia
[28] = tested on: NCI-H226 lung
[29] = tested on: NCI-H23 lung
[30] = tested on: NCI-H460 lung
[31] = tested on: NCI-H522 lung
[32] = tested on: NCI/ADR-RES ovarian
[33] = tested on: OVCAR-3 ovarian
[34] = tested on: OVCAR-4 ovarian
[35] = tested on: OVCAR-5 ovarian
[36] = tested on: OVCAR-8 ovarian
[37] = tested on: PC-3 prostate
[38] = tested on: RPMI-8226 leukemia
[39] = tested on: SF-268 CNS
[40] = tested on: SF-295 CNS
[41] = tested on: SF-539 CNS
[42] = tested on: SK-MEL-2 melanoma
[43] = tested on: SK-MEL-28 melanoma
[44] = tested on: SK-MEL-5 melanoma
[45] = tested on: SK-OV-3 ovarian
[46] = tested on: SN12C renal
[47] = tested on: SNB-19 CNS
[48] = tested on: SNB-75 CNS
[49] = tested on: SR leukemia
[50] = tested on: SW-620 colon
[51] = tested on: TK-10 renal
[52] = tested on: U251 CNS
[53] = tested on: UACC-257 melanoma
[54] = tested on: UACC-62 melanoma
[55] = tested on: UO-31 renal
[56] = tested on: HL-60(TB) leukemia
[57] = tested on: RXF 393 renal

## CCCc1c(OC)c(O)c2c(=O)cc(OC)c3c4c(OC)cc(=O)c5c(O)c(OC)c(CCC)c(c1c23)c54
[1]
  TGI: 13.5 µM
[2]
  TGI: 31 µM
[3]
  TGI: 25.8 µM
[4]
  TGI: 17 µM
[5]
  TGI: 19.8 µM
[6]
  TGI: 16.5 µM
[7]
  TGI: 50.1 µM
[8]
  TGI: 14.9 µM
[9]
  TGI: 13.2 µM
[10]
  TGI: 15.3 µM
[11]
  TGI: 34.9 µM
[12]
  TGI: 13.2 µM
[13]
  TGI: 22.9 µM
[14]
  TGI: 18.9 µM
[15]
  TGI: 37.4 µM
[16]
  TGI: 17.9 µM
[17]
  TGI: 16.2 µM
[18]
  TGI: > 100 µM
[19]
  TGI: 53.7 µM
[20]
  TGI: 4.91 µM
[21]
  TGI: 20.4 µM
[22]
  TGI: 10.7 µM
[23]
  TGI: 26.5 µM
[24]
  TGI: 8.54 µM
[25]
  TGI: 14.3 µM
[26]
  TGI: 22.7 µM
[27]
  TGI: 5.69 µM
[28]
  TGI: 14.8 µM
[29]
  TGI: 26.6 µM
[30]
  TGI: 18.1 µM
[31]
  TGI: 9.53 µM
[32]
  TGI: 25.1 µM
[33]
  TGI: 13.1 µM
[34]
  TGI: 32.7 µM
[35]
  TGI: 51.1 µM
[36]
  TGI: 22.6 µM
[37]
  TGI: 11.9 µM
[38]
  TGI: > 100 µM
[39]
  TGI: 19.6 µM
[40]
  TGI: 31.6 µM
[41]
  TGI: 34.7 µM
[42]
  TGI: 22.1 µM
[43]
  TGI: 21.1 µM
[44]
  TGI: 11.5 µM
[45]
  TGI: 76.5 µM
[46]
  TGI: 15.3 µM
[47]
  TGI: 16.8 µM
[48]
  TGI: 23.6 µM
[49]
  TGI: > 100 µM
[50]
  TGI: 16.9 µM
[51]
  TGI: > 100 µM
[52]
  TGI: 6.41 µM
[53]
  TGI: > 100 µM
[54]
  TGI: 59.9 µM
[55]
  TGI: 11 µM

## CS(=O)(=O)c1nc(-c2cc3c(c(S(C)(=O)=O)n2)CCC3)cc2c1CCC2
[1]
  TGI: > 100 µM
[2]
  TGI: > 100 µM
[3]
  TGI: > 100 µM
[4]
  TGI: > 100 µM
[5]
  TGI: > 100 µM
[6]
  TGI: > 100 µM
[7]
  TGI: > 100 µM
[8]
  TGI: > 100 µM
[9]
  TGI: > 100 µM
[10]
  TGI: > 100 µM
[11]
  TGI: > 100 µM
[12]
  TGI: > 100 µM
[13]
  TGI: > 100 µM
[56]
  TGI: > 100 µM
[14]
  TGI: > 100 µM
[16]
  TGI: > 100 µM
[17]
  TGI: 85.1 µM
[18]
  TGI: > 100 µM
[19]
  TGI: > 100 µM
[20]
  TGI: > 100 µM
[21]
  TGI: > 100 µM
[24]
  TGI: > 100 µM
[25]
  TGI: > 100 µM
[26]
  TGI: > 100 µM
[27]
  TGI: > 100 µM
[28]
  TGI: > 100 µM
[29]
  TGI: > 100 µM
[30]
  TGI: > 100 µM
[31]
  TGI: > 100 µM
[32]
  TGI: > 100 µM
[33]
  TGI: > 100 µM
[34]
  TGI: > 100 µM
[35]
  TGI: > 100 µM
[36]
  TGI: > 100 µM
[37]
  TGI: > 100 µM
[38]
  TGI: > 100 µM
[57]
  TGI: > 100 µM
[39]
  TGI: > 100 µM
[40]
  TGI: > 100 µM
[41]
  TGI: > 100 µM
[42]
  TGI: > 100 µM
[43]
  TGI: > 100 µM
[44]
  TGI: > 100 µM
[45]
  TGI: > 100 µM
[46]
  TGI: > 100 µM
[47]
  TGI: > 100 µM
[48]
  TGI: 53.4 µM
[50]
  TGI: > 100 µM
[51]
  TGI: > 100 µM
[52]
  TGI: > 100 µM
[53]
  TGI: > 100 µM
[54]
  TGI: > 100 µM
[55]
  TGI: > 100 µM
